The values below come from patent US10544130B2, “Metallo-beta-lactamase inhibitors” (priority 2015, dated 2020).

Like-named read-outs stand apart in the source and are kept apart here.

Series [1] relates to Serratia marcescens expressing IMP-1 (CL5741). The class given is cell-based. The settings on record: with imipenem 1 μg/ml, 95% inhibition of bacterial growth. The method, then: Antibiotic Potentiation Activity: Determination of Synergistic Concentration
The bacterial strains tested included the clinical strains Escherichia coli expressing NDM-1 (CLB30005, CLB30016), Serratia marcescens expressing IMP-1 (CL5741), and Klebsiella pneumoniae expressing VIM-1 (IHMA599644). Inhibitor activity was measured in the presence and absence of imipenem in a 384-well microplate.
The clinical strains CLB30016, CL5741 and IHMA599644 were grown on trypticase soy agar containing 5% sheep's blood. The bacteria on agar plates were incubated at 35° C. with humidity overnight. The following day, individual colonies from each clinical strain were picked and resuspended in 5 ml saline to attain an OD600 of 0.14, 0.11, 0.15 and 0.13, for CLB30016, CL5741 and IHMA599644, respectively. These were further diluted 1:100 into 1.1× CAMHB and used to inoculate the test wells as described below.
Imipenem in 10 mM 3-(N-morpholino)propanesulfonic acid (MOPS, pH 7) was stored in single use aliquots at −80° C. […] On the day of the assay, 4 μl of antibiotic was added to 45 ul of bacteria followed by 1 μl of test compound and mixed by pipetting and with an orbital shaker. The concentration of antibiotic used in the assay was 1 μg/ml. Microplates were covered and incubated at 35° C. for 22 hours to 24 hours. At the end of the incubation, absorbance was determined using a spectrophotometer.

Series [2] deals with Pseudomonas aeruginosa PAO1 MB9798 (efflux+, IMP-1). The note with it: ratio MITC95 PA 9798/MITC95 PA 9799; imipenem at 2 μg/mL. The procedure, abridged: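 Isogenic PAO1 pair (efflux+ MB9798, efflux− MB9799, both IMP-1) tested by microbroth MIC with fixed imipenem and/or ceftazidime, usually at CLSI breakpoint, plus fixed class A/C inhibitor against AmpC. MBL inhibitor titrated; concentration restoring susceptibility recorded and fold difference between strains taken as efflux extent.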

Turning to `Nc1ccc(-c2ccc(S(=O)(=O)N3CCNCC3)c(S(N)(=O)=O)c2-c2nn[nH]n2)cn1` [Example 485, 3-(6-aminopyridin-3-yl)-6-(piperazin-1-ylsulfonyl)-2-(2H-tetrazol-5-yl)benzenesulfonamide], in series [1], the “Serratia marcescens (IMP-1) MITC95” value was determined as 0.7813 µM. Take `C[C@H](N)CNS(=O)(=O)c1ccc(-c2ccc(N)nc2)c(-c2nn[nH]n2)c1S(N)(=O)=O` [Example 479, (S)—N1-(2-aminopropyl)-4-(6-aminopyridin-3-yl)-3-(2H-tetrazol-5-yl) benzene-1,2-disulfonamide]: in series [1], the “Serratia marcescens (IMP-1) MITC95” value was found to be 0.7813 µM.

As to `Nc1ccc(-c2ccc(S(=O)(=O)NCC3(O)CCNCC3)c(S(N)(=O)=O)c2-c2nn[nH]n2)cn1` [Example 492, 4-(6-aminopyridin-3-yl)-N1-((4-hydroxypiperidin-4-yl)methyl)-3-(2H-tetrazol-5-yl)benzene-1,2-disulfonamide], in series [1], the “Serratia marcescens (IMP-1) MITC95” value is 1.563 µM.

Take `Nc1ccc(-c2ccc(S(=O)(=O)N[C@H]3CCCNC3)c(S(N)(=O)=O)c2-c2nn[nH]n2)cn1` [Example 494, (S)-4-(6-aminopyridin-3-yl)-N1-(piperidin-3-yl)-3-(2H-tetrazol-5-yl)benzene-1,2-disulfonamide]: the “Serratia marcescens (IMP-1) MITC95” value in series [1] (CL5741) is 1.563 µM. On to `Nc1ccc(-c2ccc(S(=O)(=O)N[C@H]3CN[C@H](CO)C3)c(S(N)(=O)=O)c2-c2nn[nH]n2)cn1` [Example 411, 4-(6-aminopyridin-3-yl)-N^1-((3R,5S)-5-(hydroxymethyl)pyrrolidin-3-yl)-3-(2H-tetrazol-5-yl)benzene-1,2-disulfonamide], for which the “Serratia marcescens (IMP-1) MITC95” value in series [1] was 1.563 µM.

Regarding `Nc1ccc(-c2ccc(S(=O)(=O)NCC3(O)CNC3)c(S(N)(=O)=O)c2-c2nn[nH]n2)cn1` [Example 495, 4-(6-aminopyridin-3-yl)-N1-((3-hydroxyazetidin-3-yl)methyl)-3-(2H-tetrazol-5-yl)benzene-1,2-disulfonamide], the “Serratia marcescens (IMP-1) MITC95” value in series [1] (CL5741) is 0.7813 µM. `Nc1ccc(-c2ccc(S(=O)(=O)N[C@H]3CNC[C@H]3N)c(S(N)(=O)=O)c2-c2nn[nH]n2)cn1` [Example 413, 4-(6-aminopyridin-3-yl)-N^1-((3S,4R)-4-aminopyrrolidin-3-yl)-3-(2H-tetrazol-5-yl)benzene-1,2-disulfonamide]: the “Serratia marcescens (IMP-1) MITC95” value in series [1] stood at 1.563 µM.

Take `Nc1nc(-c2cccc(-c3ccc(S(=O)(=O)N[C@@H]4CCNC4)c(S(N)(=O)=O)c3-c3nn[nH]n3)c2)c[nH]1` [Example 428, (R)-3′-(2-amino-1H-imidazol-4-yl)-N^4-(pyrrolidin-3-yl)-2-(2H-tetrazol-5-yl)-[1,1′-biphenyl]-3,4-disulfonamide]: the “Serratia marcescens (IMP-1) MITC95” value in series [1] came out at 0.7813 µM. For the molecule `C[C@@H](N)CNS(=O)(=O)c1ccc(-c2ccc3nccn3c2)c(-c2nn[nH]n2)c1S(N)(=O)=O` [Example 423, (R)-N^1-(2-aminopropyl)-4-(imidazo[1,2-a]pyridin-6-yl)-3-(2H-tetrazol-5-yl)benzene-1,2-disulfonamide], the “Serratia marcescens (IMP-1) MITC95” value in series [1] was 0.7813 µM. Regarding `Cc1cc(-c2ccc(S(=O)(=O)NC[C@@H](O)CN)c(S(N)(=O)=O)c2-c2nn[nH]n2)cnc1N` [Example 468, (S)-N1-(3-amino-2-hydroxypropyl)-4-(6-amino-5-methylpyridin-3-yl)-3-(2H-tetrazol-5-yl)benzene-1,2-disulfonamide], the “Serratia marcescens (IMP-1) MITC95” value in series [1] was 0.7813 µM. On the same count and under the same terms, in the case of `C[C@@H](CN)NS(=O)(=O)c1ccc(-c2cc(F)cc3[nH]c(N)nc23)c(-c2nn[nH]n2)c1S(N)(=O)=O` [Example 397, (S)-4-(2-amino-6-fluoro-1H-benzo[d]imidazol-4-yl)-N^1-(1-aminopropan-2-yl)-3-(2H-tetrazol-5-yl)benzene-1,2-disulfonamide] it was 0.7813 µM; in that of `Nc1ccc2cccc(-c3ccc(S(=O)(=O)N[C@@H]4CCNC4)c(S(N)(=O)=O)c3-c3nn[nH]n3)c2n1` [Example 286, (R)-4-(2-aminoquinolin-8-yl)-N1-(pyrrolidin-3-yl)-3-(2H-tetrazol-5-yl)benzene-1,2-disulfonamide], 0.7813 µM. Consider `CC1(NS(=O)(=O)c2ccc(-c3ccc(N)nc3)c(-c3nn[nH]n3)c2S(N)(=O)=O)CNC1.Cl.Cl` [Example 497, 4-(6-aminopyridin-3-yl)-1-N-(3-methylazetidin-3-yl)-3-(2H-1,2,3,4-tetrazol-5-yl)benzene-1,2-disulfonamide hydrogen chloride], for which the “Serratia marcescens (IMP-1) MITC95” value in series [1] (CL5741) worked out at 0.7813 µM.

As to `NCCNS(=O)(=O)c1ccc(-c2ccnc(CN)c2)c(-c2nn[nH]n2)c1S(N)(=O)=O` [Example 461, N1-(2-Aminoethyl)-4-(2-(aminomethyl)pyridin-4-yl)-3-(2H-tetrazol-5-yl)benzene-1,2-disulfonamide], the “Serratia marcescens (IMP-1) MITC95” value in series [1] came out at 3.125 µM. Take `NCCCNS(=O)(=O)c1ccc(-c2cc(F)cc3[nH]c(N)nc23)c(-c2nn[nH]n2)c1S(N)(=O)=O` [Example 402, 4-(2-amino-6-fluoro-1H-benzo[d]imidazol-4-yl)-N^1-(3-aminopropyl)-3-(2H-tetrazol-5-yl)benzene-1,2-disulfonamide]: the “Serratia marcescens (IMP-1) MITC95” value in series [1] was determined as 0.7813 µM. In the case of `NC[C@@H](N)CNS(=O)(=O)c1ccc(-c2ccc(N)nc2)c(-c2nn[nH]n2)c1S(N)(=O)=O` [Example 416, (R)-4-(6-aminopyridin-3-yl)-N^1-(2,3-diaminopropyl)-3-(2H-tetrazol-5-yl)benzene-1,2-disulfonamide], in series [1], the “Serratia marcescens (IMP-1) MITC95” value stood at 1.563 µM. `CN1CCC(CNS(=O)(=O)c2ccc(-c3cccc4sc(N)nc34)c(-c3nnn[nH]3)c2S(N)(=O)=O)C1.O=C(O)C(F)(F)F` (stereo not shown) [Example 102, 3-((4-(2-aminobenzo[d]thiazol-4-yl)-2-sulfamoyl-3-(1H-tetrazol-5-yl)phenylsulfonamido)methyl)-1-methylpyrrolidin-1-ium 2,2,2-trifluoroacetate]: the Efflux ratio in series [2] was 0.50. Turning to `Nc1ncccc1-c1ccc(S(=O)(=O)NC[C@H]2CNCCN2)c(S(N)(=O)=O)c1-c1nn[nH]n1` [Example 316, (R)-4-(2-aminopyridin-3-yl)-N1-(piperazin-2-ylmethyl)-3-(1H-tetrazol-5-yl)benzene-1,2-disulfonamide], the Efflux ratio in series [2] worked out at 2.00.

With `CO[C@H]1CNC[C@@H]1NS(=O)(=O)c1ccc(-c2cccc3sc(N)nc23)c(-c2nnn[nH]2)c1S(N)(=O)=O.O=C(O)C(F)(F)F` [Example 108, (3S,4S)-3-(4-(2-aminobenzo[d]thiazol-4-yl)-2-sulfamoyl-3-(1H-tetrazol-5-yl)phenylsulfonamido)-4-methoxypyrrolidin-1-ium 2,2,2-trifluoroacetate], in series [2], the Efflux ratio was determined as 1.00.

On to `NS(=O)(=O)c1c(S(=O)(=O)N[C@@H]2CCNC2)ccc(-c2cccc3c2OC(F)(F)O3)c1-c1nnn[nH]1` [Example 131, (R)-4-(2,2-difluorobenzo[d][1,3]dioxol-4-yl)-N1-(pyrrolidin-3-yl)-3-(1H-tetrazol-5-yl)benzene-1,2-disulfonamide], for which the Efflux ratio in series [2] was 16.00. Take `Nc1nc2c(-c3ccc(S(=O)(=O)N[C@@H]4CCCNC4)c(S(N)(=O)=O)c3-c3nnn[nH]3)cccc2[nH]1` [Example 178, (R)-4-(2-amino-1H-benzo[d]imidazol-4-yl)-N^1-(piperidin-3-yl)-3-(1H-tetrazol-5-yl)benzene-1,2-disulfonamide]: the Efflux ratio in series [2] was found to be 1.00. As to `NCC(F)(F)CNS(=O)(=O)c1ccc(-c2cccc3sc(N)nc23)c(-c2nnn[nH]2)c1S(N)(=O)=O` [Example 47, 4-(2-amino-1,3-benzothiazol-4-yl)-N1-(3-amino-2,2-difluoropropyl)-3-(1H-tetrazol-5-yl)benzene-1,2-disulfonamide], the Efflux ratio in series [2] worked out at 1.00.

On to `NCCNS(=O)(=O)c1ccc(-c2ccc(N)nc2)c(-c2nn[nH]n2)c1S(N)(=O)=O` [Example 196, N^1-(2-aminoethyl)-4-(6-aminopyridin-3-yl)-3-(2H-tetrazol-5-yl)benzene-1,2-disulfonamide], for which the Efflux ratio in series [2] amounted to 1.00. On to `Cn1c(N)nc2c(-c3ccc(S(N)(=O)=O)c(S(N)(=O)=O)c3-c3nn[nH]n3)cccc21` [Example 5, 4-(2-amino-1-methyl-1H-benzo[d]imidazol-4-yl)-3-(2H-tetrazol-5-yl)benzene-1,2-disulfonamide], for which, in series [2], the Efflux ratio came out at 2.00.

As to `Nc1nc2c(-c3ccc(S(=O)(=O)NC[C@@H](N)CO)c(S(N)(=O)=O)c3-c3nn[nH]n3)cccc2[nH]1` [Example 190, 4-(2-amino-1H-benzo[d]imidazol-4-yl)-N1-((R)-2-amino-3-hydroxypropyl)-3-(2H-tetrazol-5-yl)benzene-1,2-disulfonamide], in series [2], the Efflux ratio is recorded as 0.50.
